Experimental data from patent US11612634B2 (priority 2020, dated 2023).
Entries after “also recorded” stand apart in the source; their conditions may differ.

Assays:
[1] = tested on: bone cancer pain (BCP) rat model; experiment: Analgesic effect on mechanical hyperalgesia (PWT) in BCP rat model; type: in vivo; conditions: for analgesic effect on BCP, low dose: repeated
Method: The tumor cell implantation (TCI) surgery was performed according to the method proposed by Medhurst S J, et al (Medhurst S. J., Walker K., Bowes M., Kidd B. L., Glatt M., Muller M., et al. (2002). A rat model of bone cancer pain. Pain 96 129-140). Walker 256 mammary gland carcinoma cells were transferred from a liquid nitrogen tank, thawed quickly in a 37° C. water bath and loaded into a centrifugal tube. Then the cells were added with an appropriate amount of normal saline and centrifuged at 1200 r/min for 6 min. The supernatant was discarded, and the cells were washed again, and suspended with phosphate buffered saline (PBS) to 1×10^7/mL. Young female SD rats, weighing 90-100 g, were intraperitoneally injected with 0.5 mL of mammary gland carcinoma cells, and a large amount of ascites occurred after 6-7 days of the injection. 10 mL of ascites was extracted and centrifuged for 5 min. The precipitate was washed with normal saline and then diluted with PBS to 1×10^5/mL. The rats were anesthetized with 10% chloral hydrate and shaved, and a 1-cm incision was made in the upper half skin of the right tibia to expose the bone surface with a minimal damage to the surrounding muscle or blood vessels. The bone was pierced with a 4 # needle at 5 mm below a knee joint distal to an epiphysial growth plate, and the needle was inserted to a depth so that it can be pushed into the medullary cavity. The needle was then removed, and a 10 […] needle containing cells to be injected was inserted into the medullary cavity, determining whether the needle was located in the medullary cavity by withdrawal. 5 mL (1×10^5/mL) of cancer cells were injected into the medullary cavity, and whether there are cells or blood leaking out from the injection site was observer.
The needle was kept in the medullary cavity for 1 min and then was withdrawn to enable the full cell spreading, and the injection site was pressed by a cotton swab for 1 min and closed with bone cement. The wound was sutured and treated with penicillin powder. The PWT was measured 3 days after modeling, where those rat models with a significant lower PWT were considered as successful BCP rat models, and the undesirable models were removed.
(S1) Healthy adult SD rats, weighing 180-220 g, were selected, numbered on tails and transferred to the same cage (15 rats in total).
(S2) The rats were maintained in the measuring room for 2 h for adaptation.
The measurement was repeated 3-5 times for each rat with an interval of 5-10 min, and the results were averaged. The rats were allowed to rest for several hours to build a BCP model.
Those unsuccessful models were removed, and on the 22nd day after modeling, the successfully-established models were randomly divided into 3 groups, where the groups A-C were subcutaneously with normal saline, […], respectively. 1.5 h later, the PWT of the right hind paw of each group was measured. Each rat was measured 3-5 times with an interval of 5-10 min, and the PWTs were averaged as the practical PWT (unit: g). The drug administration was performed twice a day (at 9:30 a.m. and 4:30 p.m.) for consecutive 4 days, and the PWT of each group before and after administration was measured in the morning every day. […]

[2] = tested on: morphine analgesic tolerance, neuropathic pain rat model; type: in vivo
Method: (1) 18 healthy adult SD rats, weighing 180-220 g, were selected to build a CCI-induced neuropathic pain model. On the 7th day after modeling, those successfully-established models were randomly divided into 3 groups, where the group A was injected with normal saline; the group B was injected with morphine (15 μg, 10 μL); and the group C was injected with 0.2 μg/kg of the short peptide P10581, and then injected with morphine (15 μg, 10 μL) 30 min later. 1 h later, the PWT of each group was recorded.
(2) Each group was injected with the drug respectively at 9:00 a.m. and 5:30 p.m. from 7th day to 11th day after modeling, and the PWT of each group was measured before and after the administration in the morning every day.

[3] = 14.4 μg/kg, twice a day, 4 days

Compound | analgesic effect / tolerance after repeated injection ([1]; rat, in vivo) | analgesic effect on BCP ([1]; rat, in vivo) | analgesic effect of morphine on neuropathic pain ([2]; rat, in vivo) | analgesic effect on BCP, low dose ([1]; 0.2 μg/kg S.C.) | analgesic effect on BCP, low dose ([1]; 0.4 μg/kg S.C.) | analgesic effect on BCP [1, 3] | analgesic tolerance after repeated injection [1, 3] | effect on morphine analgesic tolerance ([2]; 0.2 μg/kg peptide intrathecal 30 min before morphine 15 μg)
CN1CC[C@]23c4c5ccc(O)c4O[C@H]2[C@@H](O)C=C[C@H]3[C@H]1C5 [morphine, reference compound] | disappeared at day 4; also recorded: completely lost the analgesic effect on BCP | significantly alleviated | completely disappeared |  |  |  |  | 
WKCNPNDDKCCRPKLKC [P10581] |  |  |  | no analgesic effect | no analgesic effect on BCP | significantly alleviate the BCP | without developing the analgesic tolerance | completely eliminated
